In patent US20210283261A1, “Compositions and Methods for Treating ALK-Mediated Cancer” (ICAHN SCHOOL OF MEDICINE AT MOUNT SINAI, priority 2017, published 2021):

Tests used:
[1] = target: T1, EML4-ALK v3 fusion protein (Homo sapiens, UniProt Q9UM73); assay: Western blot of EML4-ALK v3 fusion protein levels in NCI-H2228 cells; type: cell-based; details: for effect on EML4-ALK fusion protein levels, time dependence: NCI-H2228 cells, 0, 2, 4, 8, 16 and 24 h; for effect on EML4-ALK fusion protein levels, concentration dependence: NCI-H2228 cells, 1, 3, 10, 30 or 100 nM, 16 h
T1 construct: endogenous in cells; host or cells: NCI-H2228
T1 sequence (Q9UM73 1058-1620 limits assumed): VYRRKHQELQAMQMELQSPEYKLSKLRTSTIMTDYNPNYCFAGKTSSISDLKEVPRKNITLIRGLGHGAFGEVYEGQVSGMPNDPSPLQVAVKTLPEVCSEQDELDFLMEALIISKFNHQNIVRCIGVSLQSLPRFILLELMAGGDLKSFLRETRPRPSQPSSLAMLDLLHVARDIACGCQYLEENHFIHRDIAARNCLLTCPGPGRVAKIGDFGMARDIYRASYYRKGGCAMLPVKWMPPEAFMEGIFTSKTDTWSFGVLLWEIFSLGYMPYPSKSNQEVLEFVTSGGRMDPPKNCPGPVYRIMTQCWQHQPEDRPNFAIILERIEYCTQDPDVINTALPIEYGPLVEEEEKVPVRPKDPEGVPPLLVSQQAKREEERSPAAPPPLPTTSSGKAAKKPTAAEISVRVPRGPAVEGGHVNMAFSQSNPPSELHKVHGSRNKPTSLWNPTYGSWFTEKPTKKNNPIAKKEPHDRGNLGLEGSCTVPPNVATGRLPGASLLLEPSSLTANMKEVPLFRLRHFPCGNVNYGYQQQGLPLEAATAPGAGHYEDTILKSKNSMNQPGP
Protocol: Cells were cultured in a 37° C. incubator with 5% CO2.
Cells were washed with cold PBS once and lysed in 1× Laemmli loading buffer directly. […] Membrane was blocked in 5% milk in Tris-buffered saline and Tween 20 (TBST) for 1 h at room temperature, followed by incubation with a primary antibody overnight at 4° C., and a horseradish peroxidase (HRP)-conjugated secondary antibody for 1 h at room temperature. The membrane was imaged by a ChemiDoc MP imaging system (BIO-RAD). Antibodies against GAPDH (abeam), Phospho-ALK (Tyr1507), ALK (Cell Signaling Technology), Tubulin (Santa Cruz) were purchased commercially.
Cells were 70% confluent and treated with DMSO or indicated serial dilutions of compounds for 16 h. The EML4-ALK fusion protein levels were determined by Western blot and normalized against GPADH (right panel).

ALK = assay: Characterization of ALK degraders in ALCL and NSCLC cells (summary); type: cell-based; details: summary statement
Excerpt: Specific exemplary ALK degraders/disruptors were characterized in various different anaplastic large cell lymphoma (ALCL) cells and non-small cell lung cancer (NSCLC) cells (Examples 4-19, FIGS. 1-18). […] This efficacy in suppressing ALK expression and ALK activity correlated with efficacy in inhibiting cancer cell proliferation.

Phospho-ALK (Tyr1507) = target: T2, Phospho-ALK (Tyr1507) (Homo sapiens, UniProt Q9UM73); assay: Western blot of ALK phosphorylation at Tyr1507 (ALK activity) in SU-DHL-1 cells; type: cell-based; details: 3 nM, 16 h
T2 construct: endogenous in cells; host or cells: SU-DHL-1; the other entry of the earlier key: NPM1 (P06748, Nucleophosmin)
T2 sequence (Q9UM73 with tags, fused parts or gaps): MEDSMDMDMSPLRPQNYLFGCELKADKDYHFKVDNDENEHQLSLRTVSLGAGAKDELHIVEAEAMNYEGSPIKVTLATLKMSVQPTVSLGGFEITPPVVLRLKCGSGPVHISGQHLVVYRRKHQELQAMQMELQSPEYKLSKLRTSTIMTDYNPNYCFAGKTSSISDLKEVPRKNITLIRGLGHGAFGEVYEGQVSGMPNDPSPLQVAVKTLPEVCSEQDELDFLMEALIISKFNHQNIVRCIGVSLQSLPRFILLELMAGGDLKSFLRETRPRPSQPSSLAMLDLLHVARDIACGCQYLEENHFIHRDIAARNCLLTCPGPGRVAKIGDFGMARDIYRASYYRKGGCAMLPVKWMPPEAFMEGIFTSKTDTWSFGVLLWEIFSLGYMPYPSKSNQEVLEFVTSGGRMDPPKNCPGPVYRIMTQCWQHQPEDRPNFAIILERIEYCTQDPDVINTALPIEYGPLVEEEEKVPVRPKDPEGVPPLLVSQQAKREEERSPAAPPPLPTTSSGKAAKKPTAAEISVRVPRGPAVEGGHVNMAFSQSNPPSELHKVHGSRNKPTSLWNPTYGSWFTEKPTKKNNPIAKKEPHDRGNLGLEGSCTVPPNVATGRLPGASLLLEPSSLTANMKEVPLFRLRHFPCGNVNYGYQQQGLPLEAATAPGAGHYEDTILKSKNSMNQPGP
Protocol: Cells were washed with cold PBS once and lysed in 1× Laemmli loading buffer directly. Lysates were heated at 99° C. for […], and resolved on 4-15% precast SDS-PAGE (BIO-RAD) and transferred onto PVDF membrane. Membrane was blocked in 5% milk in Tris-buffered saline and Tween 20 (TBST) for 1 h at room temperature, followed by incubation with a primary antibody overnight at 4° C., and a horseradish peroxidase (HRP)-conjugated secondary antibody for 1 h at room temperature. The membrane was imaged by a ChemiDoc MP imaging system (BIO-RAD). Antibodies against GAPDH (abeam), Phospho-ALK (Tyr1507), ALK (Cell Signaling Technology), Tubulin (Santa Cruz) were purchased commercially.
SU-DHL-1 cells were seeded in 12-well plates at a density of 4×10^5/mL and treated with DMSO or indicated serial dilutions of compounds for 16 h. The NPM-ALK fusion protein levels were determined by Western blot and normalized against GPADH (right panel).

SU-DHL-1 cells = assay: Cell viability assay in SU-DHL-1 cells; type: cell-based; details: CellTiter-Glo; for cell viability inhibition compared with negative controls: 3 days; for GI50: Homo sapiens, 60 h, 2.5 days, read-out: GI50 (drug concentration that results in 50% growth inhibition)
Protocol: (§1) SU-DHL-1 cells were seeded in 96-well plates at a density of 1×10^4 cells per well, in triplicate. Treated cells with DMSO or indicated serial dilutions of compounds for 2.5 days. Cell growth/survival was measured by using the CellTiter-Glo luminescent cell viability assay following the manufacturer's instructions (Promega) or CCK8 cell viability assay (Sigma). Data was analyzed by using the GraphPad Prism software, Error bars represent ±SD for triplicate experiments.
as §1, with “assay.” for “assay following the manufacturer's instructions (Promega) or CCK8 cell viability assay (Sigma).”, “experiments (left panel).” for “experiments.”
SU-DHL-1 cells were seeded in 96-well plates at a density of 5000 cells per well, in triplicate. The cells were treated with DMSO or indicated serial dilutions of compounds for 3 days. Cell growth was measured using the CellTiter-Glo luminescent cell viability assay. Data were analyzed using the GraphPad Prism.
SU-DHL-1 and NCI-3122 cells were treated with DMSO or indicated serial dilutions of compounds for 3 days. Data were analyzed using the GraphPad Prism.

NPM-ALK fusion protein = target: T3, NPM-ALK fusion protein (Homo sapiens, UniProt Q9UM73); assay: Western blot of NPM-ALK fusion protein levels in SU-DHL-1 cells; type: cell-based; details: for effect on NPM-ALK fusion protein levels, time dependence: SU-DHL-1 cells, 0, 2, 4, 8, 16 and 24 h; for Dmax at 0.03 µM / reversibility of induced ALK fusion protein degradation after washout / rescue of induced NPM-ALK degradation by pomalidomide, MLN4924 and MG-132: SU-DHL-1 cells; for Dmax at 0.03 µM: 30 nM, Western blot, read-out: ALK fusion protein degradation, SU-DHL-1 (30 nM); for reversibility of induced ALK fusion protein degradation after washout: 100 nM for 2 h, PBS wash, fresh medium; for effect on NPM-ALK fusion protein levels, concentration dependence: SU-DHL-1 cells, 1, 3, 10, 30 or 100 nM, 16 h; for rescue of induced NPM-ALK degradation by pomalidomide, MLN4924 and MG-132: 2 h pre-treatment, then 100 nM compound for 6 h
T3 construct: endogenous in cells; host or cells: SU-DHL-1; the other entry of the earlier key: NPM1 (P06748, Nucleophosmin)
T3 sequence (Q9UM73 with tags, fused parts or gaps): as above
Summary of the method: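 SU-DHL-1 cells treated with DMSO or compound serial dilutions for 16 h, or at 30 nM or 100 nM for varying times. NPM-ALK and phospho-ALK (Tyr1507) levels measured by Western blot and normalized to GAPDH.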

[2] = Standard PK study in mice, plasma concentrations; type: in vivo, male Swiss Albino mice; details: single 50 mg/kg intraperitoneal (IP) injection, 30 min to 12 h
Protocol: Standard PK studies were conducted using male Swiss Albino mice. […] Error bars represent ±SD for triplicate samples.

Compound	effect on EML4-ALK fusion protein levels, time dependence [1]	effect on EML4-ALK fusion protein levels, concentration dependence [1]	suppressing both ALK expression and ALK activity (ALK)	inhibition of ALK activity (phosphorylation at Tyr1507) (Phospho-ALK (Tyr1507))	cell viability inhibition compared with negative controls (SU-DHL-1 cells)	GI50 (SU-DHL-1 cells)	effect on NPM-ALK fusion protein levels, time dependence (NPM-ALK fusion protein)	Dmax at 0.03 µM (NPM-ALK fusion protein)	reversibility of induced ALK fusion protein degradation after washout (NPM-ALK fusion protein)	effect on NPM-ALK fusion protein levels, concentration dependence (NPM-ALK fusion protein)	rescue of induced NPM-ALK degradation by pomalidomide, MLN4924 and MG-132 (NPM-ALK fusion protein)	bioavailability in mice [2]
Cc1cc(Nc2ncc(Cl)c(Nc3ccccc3S(=O)(=O)C(C)C)n2)c(OC(C)C)cc1C1CCN(CC(=O)NCCOCCOCCOCCOCCOCCNc2cccc3c2C(=O)N(C2CCC(=O)NC2=O)C3=O)CC1 (centres unmarked) [CZ40-77, 2-(4-(4-((5-Chloro-4-((2-(isopropylsulfonyl)phenyl)amino)pyrimidin-2-yl)amino)-5-isopropoxy-2-methylphenyl)piperidin-1-yl)-N-(17-((2-(2,6-dioxopiperidin-3-yl)-1,3-dioxoisoindolin-4-yl)amino)-3,6,9,12,15-pentaoxaheptadecyl)acetamide]	time-dependently reduced	concentration-dependently reduced	especially effective	strongly inhibited	better cell viability inhibition	< 40 nM	time-dependently reduced	> 80%	Reversible	concentration-dependently reduced	significantly rescued	
Cc1cc(Nc2ncc(Cl)c(Nc3ccccc3S(=O)(=O)C(C)C)n2)c(OC(C)C)cc1C1CCN(CC(=O)NCCNc2cccc3c2C(=O)N(C2CCC(=O)NC2=O)C3=O)CC1 (centres unmarked) [CZ40-78, 2-(4-(4-((5-Chloro-4-((2-(isopropylsulfonyl)phenyl)amino)pyrimidin-2-yl)amino)-5-isopropoxy-2-methylphenyl)piperidin-1-yl)-N-(2-((2-(2,6-dioxopiperidin-3-yl)-1,3-dioxoisoindolin-4-yl)amino)ethyl)acetamide]	time-dependently reduced	concentration-dependently reduced	especially effective	strongly inhibited	better cell viability inhibition	< 40 nM	time-dependently reduced	> 80%	Reversible	concentration-dependently reduced	significantly rescued	Bioavailable
